In ChEMBL document CHEMBL5344482, “Deconvoluting low yield from weak potency in direct-to-biology workflows with machine learning” (RSC Med Chem, 2024) one finds IC50 and inhibition data, which are given here for three molecules.

The term IC50 denotes the point on the concentration scale where inhibition reaches its midpoint. Lower therefore signals greater potency. By inhibition is commonly meant the change of the read-out against control, counted positive when it falls.

The target in assay [1] is Replicase polyprotein 1ab (Severe acute respiratory syndrome coronavirus 2, UniProt P0DTD1). Put plainly: Inhibition of SARS-Cov-2 main protease using fluorogenic substrate [5-FAM]-AVLQSGFR-[Lys(Dabcyl)]-K-amide by fluorogenic assay.
Assay [2] deals with Replicase polyprotein 1ab (Severe acute respiratory syndrome coronavirus 2) (UniProt P0DTD1). Put plainly: Inhibition of SARS-Cov-2 main protease using fluorogenic substrate [5-FAM]-AVLQSGFR-[Lys(Dabcyl)]-K-amide by fluorogenic assay relative to control.

In turn, `NCCc1ccc(C(F)F)cc1` displayed an IC50 in assay [1] of 50 nM. This lies in the double-digit nanomolar range.
Consider `Nc1ncc(C(F)(F)F)cc1Cl`, for which the inhibition in assay [2] came to 35%.
In assay [1], `NCCc1cccc(Cl)c1` registered an IC50 of 52 nM.
